# Results: patent US20210221784A1, “COMPOUNDS AND COMPOSITIONS FOR THE TREATMENT OF PAIN” (Université de Strasbourg, priority 2018, published 2021)
# Structures can show the parent of a compound that is named as a salt.
# Biological target: T1, hNPFFR1 (Homo sapiens, UniProt Q9GZQ6)
# T1 construct: expressed in transfected cells; membranes
# Assay: Radioligand binding competition, membranes from CHO cells expressing hNPFFR1
# Details: 0.015 nM [D-Tyr1[125I], N-MePhe3]-NPFF, 1 hr at 25° C., read-out: NPFF1-R Ki
# Experimental: Competition experiments with membranes from CHO cells stably expressing hNPFFR1 and hNPFFR2 were performed essentially as described in Elhabazi, K., et al. Neuropharmacology, 2013. 75C, 164-171., Briefly, hNPFFR1 or hNPFFR2 membranes (5 to 10 μg of proteins) were incubated (1 hr at 25° C.; 0.25 mL total volume) with 0.015 nM [D-Tyr1[125I], N-MePhe3]-NPFF (Hartmann Analytic GmbH) in 50 mM HEPES (pH 7.4), 1 mM CaCl2, 1 mM MgCl2 and 0.1% bovine serum albumin. Non-specific binding was determined in the presence of 10 μM RFRP-3. Incubation was terminated by rapid filtration through a 96-well GF/B unifilter apparatus (Perkin Elmer Life and Analytical Sciences, Courtaboeuf, France). Unifilters were washed five times with binding buffer, then dried for 1 h at 65° C. After addition of 40 μL scintillation cocktail (Microscint-O, Perkin Elmer) per well, bound radioactivity was determined on a TopCount scintillation counter (Perkin Elmer).
# T1 sequence (Q9GZQ6 whole entry): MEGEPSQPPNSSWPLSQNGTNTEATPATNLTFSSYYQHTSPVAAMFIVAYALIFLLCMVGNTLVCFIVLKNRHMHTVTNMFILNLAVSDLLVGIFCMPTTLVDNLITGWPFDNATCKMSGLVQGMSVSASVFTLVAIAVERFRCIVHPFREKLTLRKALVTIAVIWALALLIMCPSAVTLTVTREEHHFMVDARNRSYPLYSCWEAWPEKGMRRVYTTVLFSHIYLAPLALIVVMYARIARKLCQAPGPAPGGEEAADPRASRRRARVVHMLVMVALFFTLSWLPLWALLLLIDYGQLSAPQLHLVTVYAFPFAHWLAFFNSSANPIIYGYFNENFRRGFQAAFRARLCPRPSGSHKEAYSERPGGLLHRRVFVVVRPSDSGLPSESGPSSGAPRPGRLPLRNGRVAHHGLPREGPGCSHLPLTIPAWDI
row,Structure (SMILES),Ki [nM]
1,"Nc1ccc(-c2ccccc2OC(F)(F)F)c(N)n1 [Compound 2c, 3-(2-(trifluoromethoxy)phenyl) pyridine-2,6-diamine]",34
2,"Nc1ccc(-c2ccccc2)c(N)n1 [Compound 1a, 3-phenylpyridine-2,6-diamine]",188
3,"Nc1ccc(-c2ccncc2)c(N)n1 [Compound 3d, [3,4′-bipyridine]-2,6-diamine]",5390
4,"Nc1ccc(-c2cccnc2)c(N)n1 [Compound 3e, [3,3′-bipyridine]-2,6-diamine]",1930

# Biological target: T2, human NPFFR1 (hNPFFR1) receptor (Homo sapiens, UniProt Q9GZQ6)
# T2 construct: expressed in transfected cells; host or cells: HEK-293 T cells, transient co-transfection
# T2 sequence (Q9GZQ6 whole entry): as above
# Assay: Human NPFFR1 evaluation using BRET biosensors in HEK-293 T cells
# Assay type: cell-based
# Details: hNPFFR1 in HEK-293 T cells, stimulated by EC80 RFRP-3, read-out: IC50 of antagonist activity
# Experimental: Compounds of the present invention were tested successively for their agonist and antagonist activities on human NPFFR1 (hNPFFR1) receptor transiently over-expressed in HEK-293 T cells. Compounds exert agonist activity if, by themselves in absence of neuropeptide RFRP-3 (also named NPVF) they activate hNPFFR1; and they exert antagonist activity if they decrease the action of RFRP-3 on the receptor. The assay used to measure compound activity is based on BRET (Bioluminescence Resonance Energy Transfer) biosensors and is designed to monitor the plasma membrane translocation of protein that interacts with specific Ga subunit. The specific effector (luciferase tagged: BRET donor) recruited at the membrane will be in close proximity to a plasma membrane anchor (GFP tagged: BRET acceptor) to induce a BRET signal (Ramdan et al, 2006, Chapter 5, Current Protocols in Neuroscience).
# HEK-293 T cells are maintained in Dulbecco's Modified Eagle's Medium supplemented with 10% Foetal Calf Serum, 1% Penicillin/Streptomycin at 37° C./5% CO2. Cells are co-transfected using polyethylenimine (25 kDa linear) with four DNA plasmids encoding; hNPFFR1, GαoB, a Gi family specific intracellular effector fused to luciferase (BRET donor), a plasma membrane effector fused to GFP (BRET acceptor). After transfection, cells are cultured for 48 h at 37° C./5% CO2.
# Receptor activity is detected by changes in BRET signal.
# On the day of the assay, cells are detached using trypsin 0.05%, resuspended in assay buffer (1.8 mM CaCl2, 1 mM MgCl2, 2.7 mM KCl, 137 mM NaCl, 0.4 mM NaH2PO4, 5.5 mM D-Glucose, 11.9 mM NaHCO3, 25 mM Hepes) and seeded in 384 well plate at a density of 20,000 cells per well. Then, plates are equilibrated 3.5 hours at 37° C. before adding compounds.
# Compounds and luciferase substrate are added to the cells using an automated device (Freedom Evo®, Tecan) and BRET readings are collected on EnVision (PerkinElmer) with specific filters (410 nm BW 80 nm, 515 nm BW 30 nm).
# Agonist and antagonist activities of compounds are consecutively evaluated on the same cell plate. Agonist activity is first measured after 10 minutes incubation with compound alone on the cells. Then, cells are stimulated by an EC80 RFRP-3 concentration and luminescence is recorded for additional 10 minutes. EC80 RFRP-3 concentration is the concentration giving 80% of the maximal RFRP-3 response. Agonist or antagonist activities are evaluated in comparison to basal signals evoked by assay buffer or EC80 RFRP-3 alone, respectively.
# For IC50 determination, a dose-response test is performed using 20 concentrations (ranging over 6 logs) of each compound. Dose-response curves are fitted using the sigmoidal dose-response (variable slope) analysis in GraphPad Prism software (GraphPad Software) and IC50 of antagonist activity is calculated. Dose-response experiments are performed in duplicate, in two independent experiments.
row,Structure (SMILES),IC50 [nM]
1,"Nc1ccc(-c2cc(Cl)ccc2C2CC2)c(N)n1 [Compound 55, 3-(5-Chloro-2-cyclopropyl-phenyl)-pyridine-2,6-diamine]",100 to 500
2,"Nc1ccc(-c2ccccc2OC(F)(F)F)c(N)n1 [Compound 2c, 3-(2-(trifluoromethoxy)phenyl) pyridine-2,6-diamine]",500 to 1000
3,"Nc1ccc(-c2ccccc2Oc2ccccc2)c(N)n1 [Compound 43, 3-(2-Phenoxy-phenyl)-pyridine-2,6-diamine]",100 to 500
4,"Nc1ccc(-c2ccccc2Cc2ccccc2)c(N)n1 [Compound 44, 3-(2-Benzyl-phenyl)-pyridine-2,6-diamine]",100 to 500
5,"Nc1ccc(-c2ccccc2C2CC2)c(N)n1 [Compound 42, 3-(2-Cyclopropyl-phenyl)-pyridine-2,6-diamine]",< 100
6,"Nc1ccc(-c2ccccc2)c(N)n1 [Compound 1a, 3-phenylpyridine-2,6-diamine]",> 1000
7,"COc1ccncc1-c1ccc(N)nc1N [Compound 88, 3-(4-methoxy-3-pyridyl)pyridine-2,6-diamine]",> 1000
8,"CN(C)c1ccccc1-c1ccc(N)nc1N [Compound 61, 3-(2-Dimethylamino-phenyl)-pyridine-2,6-diamine]",100 to 500
9,"COc1cccc(OC(C)C)c1-c1ccc(N)nc1N [Compound 39, 3-(2-Isopropoxy-6-methoxy-phenyl)-pyridine-2,6-diamine]",> 1000
10,"CCc1nc(N)ccc1-c1cccc(Cl)c1C [Compound 29, 5-(3-chloro-2-methyl-phenyl)-6-ethyl-pyridin-2-ylamine]",100 to 500
11,"Nc1ccc(-c2ccc(Cl)cc2OC2CCCC2)c(N)n1 [Compound 47, 3-(4-Chloro-2-cyclopentyloxy-phenyl)-pyridine-2,6-diamine]",500 to 1000
12,"Nc1ccc(-c2ccccc2OC2CC2)c(N)n1 [Compound 48, 3-(2-Cyclopropoxy-phenyl)-pyridine-2,6-diamine]",100 to 500

# System: not given
# Assay: not given
# Details: not given
row,Structure (SMILES),melting point [°C]
1,"COc1ccccc1-c1ccc(N)nc1OC [Compound 35, 6-Methoxy-5-(2-methoxy-phenyl)-pyridin-2-ylamine]",85 to 87
2,"CNc1ccc(-c2ccc(N)nc2N)cn1 [Compound 80, 3-[6-(methylamino)-3-pyridyl]pyridine-2,6-diamine]",178 to 182
3,"Nc1ccc(-c2ccc(N3CCOCC3)nc2)c(N)n1 [Compound 78, 3-(6-morpholino-3-pyridyl)pyridine-2,6-diamine]",201 to 205
4,"NCCOc1nc(N)ccc1-c1cccc(Cl)c1Cl (as salt: hydrochloride) [Compound 38, 6-(2-Amino-ethoxy)-5-(2,3-dichloro-phenyl)-pyridin-2-ylamine]",183 to 190
5,"COc1ccccc1-c1cnc(N)cc1OC [Compound 20, 4-Methoxy-5-(2-methoxy-phenyl)-pyridin-2-ylamine]",140 to 144
6,"COc1ccccc1-c1cnc(N)c(C(F)(F)F)c1 [Compound 14, 5-(2-Methoxy-phenyl)-3-trifluoromethyl-pyridin-2-ylamine]",63 to 67
7,"Cc1c(Cl)cccc1-c1cc(F)c(N)nc1N [Compound 66, 3-(3-Chloro-2-methyl-phenyl)-5-fluoro-pyridine-2,6-diamine]",128 to 135
8,"COc1ccccc1-c1ccc(N)nc1OCCN [Compound 37, 6-(2-Amino-ethoxy)-5-(2-methoxy-phenyl)-pyridin-2-ylamine]",197 to 203
9,"COc1ccccc1-c1cnc(N)c(C)c1 [Compound 13, 5-(2-Methoxy-phenyl)-3-methyl-pyridin-2-ylamine]",92 to 95
10,"Nc1ccc(-c2cccc(Cl)c2Cl)c(C(F)(F)F)n1 [Compound 34, 5-(2,3-Dichloro-phenyl)-6-trifluoromethyl-pyridin-2-ylamine]",165 to 170
11,"Nc1ccc(-c2cnc(N)c(C(F)(F)F)c2)c(N)n1 [Compound 83, 3-[6-amino-5-(trifluoromethyl)-3-pyridyl]pyridine-2,6-diamine]",154 to 155
12,"CC(=O)Nc1ccccc1-c1ccc(N)nc1N [Compound 62, N-[2-(2,6-Diamino-pyridin-3-yl)-phenyl]-acetamide]",60 to 70
13,"Nc1ccc(-c2ccc(N3CCCCC3)nc2)c(N)n1 [Compound 79, 3-[6-(1-piperidyl)-3-pyridyl]pyridine-2,6-diamine]",155 to 159
14,"Nc1ccc(-c2cccnc2F)c(N)n1 [Compound 87, 3-(2-fluoro-3-pyridyl)pyridine-2,6-diamine]",184 to 188
15,"COc1ccccc1-c1cnc(N)cc1C [Compound 21, 5-(2-Methoxy-phenyl)-4-methyl-pyridin-2-ylamine]",85 to 88
16,COc1cc(N)ncc1-c1cccc(Cl)c1Cl.Cl,> 250
17,"COc1ccccc1-c1cnc(N)cc1F [Compound 18, 4-Fluoro-5-(2-methoxy-phenyl)-pyridin-2-ylamine]",65 to 70
18,"COc1ccccc1-c1ccc(N)nc1F [Compound 32, 6-Fluoro-5-(2-methoxy-phenyl)-pyridin-2-ylamine]",175 to 178
19,"COc1ccccc1-c1cnc(N)c(F)c1 [Compound 15, 3-Fluoro-5-(2-methoxy-phenyl)-pyridin-2-ylamine]",75 to 79
20,COc1ccccc1-c1cnc(N)cc1OCCN.Cl,218 to 224
21,Cl.Nc1cc(OCC(F)(F)F)c(-c2cccc(Cl)c2Cl)cn1,> 250
22,"Cc1n[nH]c(C)c1-c1ccc(N)nc1N [Compound 90, 3-(3,5-dimethyl-1H-pyrazol-4-yl)pyridine-2,6-diamine]",> 250
23,COc1ccccc1-c1cnc(N)cc1OCC(F)(F)F.Cl,238 to 240
24,"Nc1ccc(-c2ccc(N)nc2N)cn1 [Compound 82, 3-(6-amino-3-pyridyl)pyridine-2,6-diamine]",220 to 240
25,"Nc1cc(F)c(-c2cccc(Cl)c2Cl)cn1 [Compound 17, 5-(2,3-Dichloro-phenyl)-4-fluoro-pyridin-2-ylamine]",107 to 112
26,"Nc1ncc(-c2cccc(Cl)c2Cl)cc1F [Compound 16, 5-(2,3-Dichloro-phenyl)-3-fluoro-pyridin-2-ylamine]",130 to 136
27,"Nc1ccc(-c2cccc(Cl)c2Cl)c(F)n1 [Compound 33, 5-(2,3-Dichloro-phenyl)-6-fluoro-pyridin-2-ylamine]",139 to 144
28,"Cc1cc(N)nc(C)c1-c1cccc(Cl)c1Cl [Compound 28, 5-(2,3-Dichloro-phenyl)-4,6-dimethyl-pyridin-2-ylamine]",140 to 145
29,CN(C)c1ccc(-c2ccc(N)nc2N)c2ccccc12.Cl,175 to 181
